Experimental data from PubChem BioAssay AID328 (DTP/NCI, 2004).
Values joined by “and” are separate entries in the source; they are usually repeats but may differ in a detail not shown here. Equal values may be shown once. Toxic doses and inconclusive results are not listed.

Tested on: BDF1 mice, P388 leukemia ip, median survival T/C
Assay: NCI In Vivo Anticancer Drug Screen. Data for tumor model P388 Leukemia (intraperitoneal) in B6D2F1 (BDF1) mice
Details: endpoint: median survival time, higher = longer survival
In short: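 In tumour-bearing mice, survival after compound treatment is set against the vehicle group and given as a quotient.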

[1] = dose: 5.0 mg/kg/injection, schedule: Q04DX003 (ip), vehicle: saline
[2] = dose: 100.0 mg/kg/injection, schedule: Q04DX003 (ip), vehicle: saline with Tween-80
[3] = dose: 200.0 mg/kg/injection, schedule: Q04DX003 (ip), vehicle: saline with Tween-80

CC[n+]1ccc(Nc2ccc(NC(=O)c3ccc(C(=O)Nc4ccc(Nc5cc[n+](CC)c(N)n5)cc4)cc3)cc2)nc1N
T/C (dose: 0.12 mg/kg/injection, schedule: Q01DX009 (ip), vehicle: saline): 150 % of control
T/C (dose: 0.25 mg/kg/injection, schedule: Q01DX009 (ip), vehicle: saline): 150 % of control
T/C (dose: 0.25 mg/kg/injection, schedule: Q04DX003 (ip), vehicle: Klucel (hydroxypropylcellulose) (HPC)): 100 % of control
T/C (dose: 0.5 mg/kg/injection, schedule: Q01DX009 (ip), vehicle: saline): 155 % of control
T/C (dose: 0.5 mg/kg/injection, schedule: Q04DX003 (ip), vehicle: Klucel (hydroxypropylcellulose) (HPC)): 95 % of control
T/C (dose: 1.0 mg/kg/injection, schedule: Q04DX003 (ip), vehicle: Klucel (hydroxypropylcellulose) (HPC)): 109 % of control
T/C (dose: 1.65 mg/kg/injection, schedule: Q01DX009 (ip), vehicle: saline): 160 % of control
T/C (dose: 2.5 mg/kg/injection, schedule: Q01DX009 (ip), vehicle: saline): 175 % of control and 177 % of control
T/C (dose: 3.75 mg/kg/injection, schedule: Q01DX009 (ip), vehicle: saline): 170 % of control
T/C [1]: 177 % of control
T/C (dose: 10.0 mg/kg/injection, schedule: Q01DX009 (ip), vehicle: saline): 190 % of control
T/C (dose: 20.0 mg/kg/injection, schedule: Q01DX009 (ip), vehicle: saline): 300 % of control
T/C (dose: 30.0 mg/kg/injection, schedule: Q04DX003 (ip), vehicle: saline): 195 % of control
T/C (dose: 45.0 mg/kg/injection, schedule: Q04DX003 (ip), vehicle: saline): 200 % of control
T/C (dose: 50.0 mg/kg/injection, schedule: Q04DX003 (ip), vehicle: saline): 200 % of control
T/C (dose: 65.0 mg/kg/injection, schedule: Q04DX003 (ip), vehicle: saline): 216 % of control
T/C (dose: 80.0 mg/kg/injection, schedule: Q01DX009 (ip), vehicle: saline): 109 % of control
T/C (dose: 100.0 mg/kg/injection, schedule: Q04DX003 (ip), vehicle: saline): 250 % of control and 263 % of control
T/C (dose: 150.0 mg/kg/injection, schedule: Q04DX003 (ip), vehicle: saline): 104 % of control
T/C (dose: 2.5 micrograms/kg/injection, schedule: Q01DX009 (ip), vehicle: saline): 90 % of control
T/C (dose: 5.0 micrograms/kg/injection, schedule: Q01DX009 (ip), vehicle: saline): 95 % of control
T/C (dose: 10.0 micrograms/kg/injection, schedule: Q01DX009 (ip), vehicle: saline): 100 % of control

Cc1c(Cl)cccc1NC(=O)Oc1ccc(Cl)cc1Cl
T/C (dose: 50.0 mg/kg/injection, schedule: Q04DX003 (ip), vehicle: saline with Tween-80): 109 % of control
T/C [2]: 122 % of control
T/C [3]: 113 % of control

CC[Se](CC)CC.CC[Se](CC)CC.C[CH2][Ge]([CH2]C)[O][Ge]([CH2]C)[CH2]C
T/C (dose: 100.0 mg/kg/injection, schedule: Q01DX009 (ip), vehicle: saline with Tween-80): 107 % of control

Cc1ccccc1NC=O
T/C (dose: 90.0 mg/kg/injection, schedule: Q01DX009 (ip), vehicle: saline with Tween-80): 103 % of control
T/C [2]: 95 % of control
T/C (dose: 135.0 mg/kg/injection, schedule: Q01DX009 (ip), vehicle: saline with Tween-80): 107 % of control
T/C (dose: 200.0 mg/kg/injection, schedule: Q01DX009 (ip), vehicle: saline with Tween-80): 99 % of control
T/C [3]: 104 % of control
T/C (dose: 300.0 mg/kg/injection, schedule: Q01DX009 (ip), vehicle: saline with Tween-80): 107 % of control
T/C (dose: 400.0 mg/kg/injection, schedule: Q01DX009 (ip), vehicle: saline with Tween-80): 120 % of control
T/C (dose: 400.0 mg/kg/injection, schedule: Q04DX003 (ip), vehicle: saline with Tween-80): 116 % of control

CCS(=O)(=O)C(N=Nc1ccccc1)S(=O)(=O)CC
T/C (dose: 20.0 mg/kg/injection, schedule: Q01DX009 (ip), vehicle: Klucel (hydroxypropylcellulose) (HPC)): 107 % of control
T/C (dose: 40.0 mg/kg/injection, schedule: Q01DX009 (ip), vehicle: Klucel (hydroxypropylcellulose) (HPC)): 101 % of control
T/C (dose: 80.0 mg/kg/injection, schedule: Q01DX009 (ip), vehicle: Klucel (hydroxypropylcellulose) (HPC)): 107 % of control

C1CC[N-]CC1.C1CC[N-]CC1.O=C(O)C(=O)O.[Pt+2]
T/C (dose: 25.0 mg/kg/injection, schedule: Q01DX009 (ip), vehicle: saline): 120 % of control
T/C (dose: 80.0 mg/kg/injection, schedule: Q01DX005 (ip), vehicle: Klucel (hydroxypropylcellulose) (HPC)): 123 % of control
T/C (dose: 100.0 mg/kg/injection, schedule: Q01DX009 (ip), vehicle: saline): 120 % of control
T/C (dose: 200.0 mg/kg/injection, schedule: Q01DX009 (ip), vehicle: saline): 100 % of control
T/C (dose: 400.0 mg/kg/injection, schedule: Q04DX003 (ip), vehicle: saline): 118 % of control

CCCCC(C(=O)OCC)C(CCC1CCCCC1)(C(=O)OCC)C(=O)OCC (stereo unspecified)
T/C (dose: 100.0 mg/kg/injection, schedule: Q04DX003 (ip), vehicle: Klucel (hydroxypropylcellulose) (HPC)): 91 % of control
T/C (dose: 200.0 mg/kg/injection, schedule: Q04DX003 (ip), vehicle: Klucel (hydroxypropylcellulose) (HPC)): 87 % of control
T/C (dose: 400.0 mg/kg/injection, schedule: Q04DX003 (ip), vehicle: Klucel (hydroxypropylcellulose) (HPC)): 100 % of control

CCOC(=O)c1ccc(NCC(=N)N)cc1
T/C (dose: 37.5 mg/kg/injection, schedule: Q01DX001 (ip), vehicle: saline sonified): 100 % of control
T/C (dose: 75.0 mg/kg/injection, schedule: Q01DX001 (ip), vehicle: saline sonified): 100 % of control
T/C (dose: 150.0 mg/kg/injection, schedule: Q01DX001 (ip), vehicle: saline sonified): 100 % of control

C=C(Cl)C(=O)OCC
T/C [1]: 100 % of control
T/C (dose: 10.0 mg/kg/injection, schedule: Q04DX003 (ip), vehicle: saline): 109 % of control
T/C (dose: 20.0 mg/kg/injection, schedule: Q04DX003 (ip), vehicle: saline): 100 % of control
